Measured values reported in patent EP0604352B1, “Aryl-substituted heterocyclic compounds” (N[…]/S, priority 1992, dated 1994).
pIC50: −log10 of the molar value.

Legend:
[1] = tested on: excitatory locomotor and rearing responses; assay: behavioural excitatory locomotor and rearing responses (side effect profile); format: in vivo, rat; settings: for Activity: locomotor and rearing, maximum peak effect, rats
Protocol: Male SPF wistar rats weighing 200-250g were used for the gross behavioural studies. All rats were transferred the day before the experiments to individual cages made of wire netting (floor area 21 x 27 cm, height 16 cm) at a room temperature of 21-23° C. […] The behavioural elements here classified as rearing (i.e. standing up on the hindlegs) and locomotor activities (i.e. forward running activities) were registered, and the maximum peak effects were classified according to the following rating scale: • 0 = non-existent or very infrequent • + = weak and infrequent • ++ = moderate in intensity and frequency • +++ = very strong, continuous and intense
The degree of locomotor activity was also tested and measured quantitatively in photocell activity cages. For the measurement of this locomotor activity 100 g female rats are used.

[2] = target: T1, reuptake of dopamine in synaptosomes of rat forebrain (Rattus norvegicus, UniProt P23977); assay: inhibition of reuptake of dopamine (3H-dopamine) in synaptosomes; format: biochemical
T1 construct: from tissue; host or cells: whole forebrain of male Wistar rats (crude synaptosomal supernatant)
Protocol: Fresh whole forebrain (at 0-4°C) from male Wistar rats (150-200 g) is homogenized in a glass homogenizer with a Teflon pestle in 20 x volumes 0.32M sucrose. The homogenate is centrifuged at 1000 x g (∼ 2900 rpm) for 10 min. The pellet is discarded and the supernatant is used for uptake assays. […] The samples are thoroughly mixed and incubated 10 min at 37°C followed by 2 min at 0°C. After incubation the samples are poured directly onto Whatman GF/C glass fibre filters under suction and immediately washed with 2 x 5 ml ice-cold 0.9% saline (NaCI) buffer. To the filter is added 3 ml of scintillation fluid, and the amount of radioactivity on the filters is determined by conventional liquid scintillation counting.

[3] = tested on: haloperidol-induced catalepsy; assay: catalepsy test for antiparkinsonian effects (antagonism of haloperidol-induced catalepsy); format: in vivo; settings: Rattus norvegicus; rats, test substance perorally 1 h before haloperidol 0.25 mg/kg subcutaneously; read-out: Minimum effective dose (peroral administration)
From the text: The principle behind the haloperidol catalepsy test relates to the fact that the drug haloperidol (Serenase®) induces a receptor blockade of post synaptic dopamine receptors within the dopamine innervated corpus striatum of the rat brain. Following the blockade of active dopamine neurotransmission of the striatum a state of rigid immobility is induced, during which the rat can be placed in various totally abnormal immobile postures involving the forelegs and the whole body. […] The immobile posture effect induced by haloperidol closely resembles the state of Parkinson's disease in humans, which is due to a deficit of the dopaminergic innervation of the striatal complex (nucleus caudatus, putamen).
The day before testing, the rats weighing 200-250 g are housed 2 and 2 together in standard macrolon cages. […] The testing for the immobile catalepsy syndrome includes 4 tests performed in the following consecutive order: • 1) a vertical wire netting (40x40 cm high).The meshes (openings) of the nettings are approximately 1×2cm. • 2) a horizontal bar 9 cm above the floor • 3) a 9 cm high block (bar) • 4) a 3 cm high block (cork)
The rats were scored for the immobile cataleptic syndrome every 15 min in all 4 tests starting 15 min after the haloperidol injection. The intensity of catalepsy was tested during 10 sec in all tests and evaluated according to a criteria of 10 sec of total immobility for a score of 2.
The rat was placed in the middle of the vertical wire netting, then on the horizontal bar in an extended position with support by both the forelegs on the bar. The rats were then tested, whether or not they were willing to sit with the left or right forelegs placed first on the 9 and then on the 3 cm block for a duration of 10 sec. The maximum score for all 4 tests is thus a total of 8.

[4] = tested on: abnormal stereotyped behaviour; assay: abnormal stereotyped behaviour, high intensity stereotypy (side effect profile); format: in vivo, rat; settings: rats
From the text: Backward locomotion may occasionally be observed.

[5] = tested on: dopamine releasing properties; assay: dopamine releasing properties

T1 sequence (P23977 whole entry): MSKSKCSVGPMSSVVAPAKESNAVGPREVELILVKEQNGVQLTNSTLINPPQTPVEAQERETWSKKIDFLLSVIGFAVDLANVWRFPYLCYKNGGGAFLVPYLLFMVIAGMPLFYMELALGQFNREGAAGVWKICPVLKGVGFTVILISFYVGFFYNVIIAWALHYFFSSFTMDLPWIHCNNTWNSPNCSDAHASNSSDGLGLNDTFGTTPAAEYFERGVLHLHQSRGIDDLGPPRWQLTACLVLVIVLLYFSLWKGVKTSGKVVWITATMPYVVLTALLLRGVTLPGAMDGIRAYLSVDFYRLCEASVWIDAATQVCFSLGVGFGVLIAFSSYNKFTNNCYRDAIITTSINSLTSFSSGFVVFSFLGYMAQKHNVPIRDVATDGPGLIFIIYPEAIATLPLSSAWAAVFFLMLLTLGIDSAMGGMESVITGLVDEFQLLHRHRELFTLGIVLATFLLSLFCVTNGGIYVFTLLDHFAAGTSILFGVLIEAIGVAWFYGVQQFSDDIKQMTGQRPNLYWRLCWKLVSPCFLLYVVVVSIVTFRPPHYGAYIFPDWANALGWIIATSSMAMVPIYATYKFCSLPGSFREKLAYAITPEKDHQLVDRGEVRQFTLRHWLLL

Structure (SMILES) | Activity ([1]; 10 mg/kg i.p.) | Activity ([1]; 100 mg/kg i.p.) | pIC50 [2] | minimal effective dose [3] [mg/kg] | Activity ([4]; 25 mg/kg i.p.) | Activity ([4]; 100 mg/kg p.o.) | Activity ([1]; 50 mg/kg i.p.) | Activity ([4]; 50 mg/kg i.p.) | side effects as measured by excitatory locomotor activity and rearing responses as well as by abnormal stereotyped behaviour ([1]; at every relevant dosing level tested) | dopamine releasing properties [5]
CN1[C@H]2CC[C@@H]1[C@H](c1nc(-c3ccncc3)no1)[C@@H](c1ccc(Cl)c(Cl)c1)C2 [(1R,2R,3S)-2-(3-(4-Pyridyl)-1,2,4-oxadiazol-5-yl)-3-(3,4-dichlorophenyl)-tropane] | 0 | ++ | 7.16 | 0.25 | ++ | + | – | – | – | –
CN1[C@H]2CC[C@@H]1[C@H](c1nc(-c3cccs3)no1)[C@@H](c1ccc(Cl)c(Cl)c1)C2 [(1R,2R,3S)-2-(3-(2-Thienyl)-1,2,4-oxadiazol-5-yl)-3-(3,4-dichlorophenyl)-tropane] | – | – | 6.70 | > 1 | – | – | 0 | 0 | – | –
CN1[C@H]2CC[C@@H]1[C@H](c1nc(-c3ccccn3)no1)[C@@H](c1ccc(Cl)c(Cl)c1)C2 [(1R,2R,3S)-2-(3-(2-Pyridyl)-1,2,4-oxadiazol-5-yl)-3-(3,4-dichlorophenyl)-tropane] | 0 | – | 6.94 | > 1 | – | – | – | + | – | –
COC(=O)[C@@H]1[C@@H](c2ccc(F)cc2)C[C@@H]2CC[C@H]1N2C [trans isomer of Win 35,428, (1R,2R,3S)-2-carbomethoxy-3-(4-fluorophenyl)tropane, reference compound] | – | – | – | – | – | – | – | – | essentially or totally devoid of side effects | essentially free of dopamine releasing properties
